Measured values reported in patent US10662205B2, “Cyclic boronic acid ester derivatives and therapeutic uses thereof” (priority 2014, dated 2020).
Read-outs that look alike come from different tables or passages of the source.

Experiments:
KP1005 (CTX-M-14) [1] = assay: Aztreonam potentiation (MPC@4); assay type: cell-based; details: aztreonam 4 μg/mL
KP1009 (CTX-M-15) [2] = assay: Aztreonam potentiation (MPC@4); assay type: cell-based; details: aztreonam 4 μg/mL
ec308 (SHV-5) [3] = assay: Aztreonam potentiation (MPC@4); assay type: cell-based; details: aztreonam 4 μg/mL
KP1010 (SHV-12) [4] = assay: Aztreonam potentiation (MPC@4); assay type: cell-based; details: aztreonam 4 μg/mL
ec302 (TEM-10) [5] = assay: Aztreonam potentiation (MPC@4); assay type: cell-based; details: aztreonam 4 μg/mL
KP1004 (KPC-2) [6] = assay: Aztreonam potentiation (MPC@4); assay type: cell-based; details: aztreonam 4 μg/mL
ECL1002 [7] = assay: Aztreonam potentiation (MPC@4); assay type: cell-based; details: aztreonam 4 μg/mL
EC1010 (CMY-6) [8] = assay: Aztreonam potentiation (MPC@4); assay type: cell-based; details: aztreonam 4 μg/mL
KP1005 (CTX-M-14) [9] = assay: Tigemonam potentiation (MPC@4); assay type: cell-based; details: tigemonam 4 μg/mL
KP1009 (CTX-M-15) [10] = assay: Tigemonam potentiation (MPC@4); assay type: cell-based
ec308 (SHV-5) [11] = assay: Tigemonam potentiation (MPC@4); assay type: cell-based; details: tigemonam 4 μg/mL
KP1010 (SHV-12) [12] = assay: Tigemonam potentiation (MPC@4); assay type: cell-based
ec302 (TEM-10) [13] = assay: Tigemonam potentiation (MPC@4); assay type: cell-based; details: tigemonam 4 μg/mL
ECL1002 [14] = assay: Tigemonam potentiation (MPC@4); assay type: cell-based; details: tigemonam 4 μg/mL
EC1010 (CMY-6) [15] = assay: Tigemonam potentiation (MPC@4); assay type: cell-based; details: tigemonam 4 μg/mL; EC1010, CMY-6
CTX-M-14 = CTX-M-14 (Escherichia coli, UniProt Q9L5C7); assay: Inhibition of nitrocefin cleavage by purified enzyme (Ki); assay type: biochemical; details: nitrocefin reporter substrate; 10 min preincubation; read-out: Ki CTX-M-14, NCF
Description: (§1) Ki values of inhibition of purified class A, C and D enzymes were determined spectrophotometrically using nitrocefin as reporter substrate. Purified enzymes were mixed with various concentrations of inhibitors in reaction buffer and incubated for 10 min at room temperature. Nitrocefin was added and substrate cleavage profiles were recorded at 490 nm every 10 sec for 10 min.

SHV-12 = SHV-12 (Klebsiella pneumoniae, UniProt P0AD64, E235K/G234S/L31Q); assay: as above; assay type: biochemical
Description: as §1

CMY-2 = CMY-2 (Klebsiella pneumoniae, UniProt Q48434); assay: as above; assay type: biochemical; details: nitrocefin reporter substrate; 10 min preincubation; read-out: Ki CMY-2, NCF
Description: as §1, with “min. These experiments confirmed that the described compounds are inhibitors with a broad-spectrum of activity towards various β-lactamases.” for “min.”

KPC-2 = KPC-2 (Klebsiella pneumoniae, UniProt Q9F663); assay: as above; assay type: biochemical; details: nitrocefin reporter substrate; 10 min preincubation; read-out: Ki KPC-2, NCF
Description: as §1, with “min. These experiments confirmed that the described compounds are inhibitors with a broad-spectrum of activity towards various β-lactamases.” for “min.”

OXA-48 = OXA-48 (Klebsiella pneumoniae, UniProt Q6XEC0); assay: as above; assay type: biochemical; details: nitrocefin reporter substrate; 10 min preincubation; read-out: Ki OXA-48, NCF
Description: as §1, with “min. These experiments confirmed that the described compounds are inhibitors with a broad-spectrum of activity towards various β-lactamases.” for “min.”

P99 = P99 (Enterobacter cloacae, UniProt P05364); assay: biochemical; details: nitrocefin reporter substrate; 10 min preincubation; read-out: Ki P99, NCF
Description: as §1

PAM1032/KPC-2 = assay: Biapenem potentiation MPC64, efflux proficient strain; assay type: cell-based, Pseudomonas aeruginosa; parameters: unit not given here; details: efflux proficient (MexAB-OprM overexpressed); decrease biapenem MIC 64-fold, 32 to 0.5 μg/ml
Description: (§2) Efflux of BLIs from Pseudomonas aeruginosa by the MexAB-OprM efflux pump was also evaluated. The plasmid expressing the gene encoding KPC-2 was introduced into two strains of P. aeruginosa, PAM1032 and PAM1154 that overexpressed or lacked MexAB-OprM, respectively. Due to expression of KPC-2 both strains became resistant to biapenem. […] Potency of BLIs to potentiate biapenem in these strains was determined. […] The ratio of MPC64 values for each BLI in PAM1032/KPC-2 (efflux proficient) and PAM1154/KPC-2 (efflux deficient) was determined to generate the Efflux Index (EI).

PAM1154/KPC-2 = assay: Biapenem potentiation MPC64, efflux deficient strain; assay type: cell-based, Pseudomonas aeruginosa; parameters: unit not given here; details: efflux deficient (lacks MexAB-OprM); decrease biapenem MIC 64-fold, 32 to 0.5 μg/ml
Description: as §2

Oral pharmacokinetics = assay type: in vivo; details: rat, plasma, rats, n=3, read-out: Range of % Oral Bioavailability
Description: Several compounds were tested for their oral pharmacokinetics. Rats (n=3 per compound) were administered a single oral dose. Oral doses were administered as a bolus. Plasma (˜0.3 mL) samples were collected from each rat at designated time points up to 24 hours. Blood samples were centrifuged within 5 min of collection at 12000 g for 5 min to obtain plasma. The plasma samples were stored at −80° C. until analyzed. Data were analyzed using WinNonlin.

KP1004 (KPC-2) [16] = assay: Biapenem potentiation (MPC@1); details: biapenem 1 μg/mL
KP1086 (OXA-48) = assay: Biapenem potentiation (MPC@1); details: biapenem 1 μg/mL

Chain of CMY-2 (Q48434 21-381, species assumed): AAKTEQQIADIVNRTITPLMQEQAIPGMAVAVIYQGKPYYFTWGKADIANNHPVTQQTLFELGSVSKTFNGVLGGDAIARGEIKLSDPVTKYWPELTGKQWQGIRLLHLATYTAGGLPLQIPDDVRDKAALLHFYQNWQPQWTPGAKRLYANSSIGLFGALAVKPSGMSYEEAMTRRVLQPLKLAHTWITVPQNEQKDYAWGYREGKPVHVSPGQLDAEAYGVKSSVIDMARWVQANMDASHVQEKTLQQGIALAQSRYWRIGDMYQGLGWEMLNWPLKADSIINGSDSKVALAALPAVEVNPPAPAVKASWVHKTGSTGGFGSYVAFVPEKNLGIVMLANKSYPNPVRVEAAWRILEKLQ
Chain of CTX-M-14 (Q9L5C7 29-291): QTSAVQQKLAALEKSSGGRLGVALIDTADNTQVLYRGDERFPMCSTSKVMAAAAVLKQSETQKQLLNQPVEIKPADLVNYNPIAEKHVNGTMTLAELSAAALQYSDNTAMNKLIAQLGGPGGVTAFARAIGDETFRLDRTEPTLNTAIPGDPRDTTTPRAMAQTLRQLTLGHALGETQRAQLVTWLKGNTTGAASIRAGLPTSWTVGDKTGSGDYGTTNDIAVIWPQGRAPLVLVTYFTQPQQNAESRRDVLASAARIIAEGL
Chain of OXA-48 (Q6XEC0 23-265, looked up, species assumed): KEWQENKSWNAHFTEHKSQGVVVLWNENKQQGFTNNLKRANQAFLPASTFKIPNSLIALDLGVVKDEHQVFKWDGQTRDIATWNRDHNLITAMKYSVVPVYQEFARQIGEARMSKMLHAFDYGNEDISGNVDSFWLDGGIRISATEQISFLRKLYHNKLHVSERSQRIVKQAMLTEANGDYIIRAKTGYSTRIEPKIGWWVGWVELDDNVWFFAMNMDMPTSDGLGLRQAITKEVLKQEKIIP
Chain of KPC-2 (Q9F663 25-293, looked up, species assumed): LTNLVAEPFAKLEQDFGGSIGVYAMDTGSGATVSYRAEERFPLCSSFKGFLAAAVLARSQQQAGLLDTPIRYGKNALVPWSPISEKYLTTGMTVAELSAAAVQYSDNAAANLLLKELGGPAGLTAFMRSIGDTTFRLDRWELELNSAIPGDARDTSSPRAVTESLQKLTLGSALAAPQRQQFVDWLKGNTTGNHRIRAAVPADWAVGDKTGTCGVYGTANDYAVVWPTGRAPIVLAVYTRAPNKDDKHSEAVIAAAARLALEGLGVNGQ
Chain of P99 (P05364 21-381): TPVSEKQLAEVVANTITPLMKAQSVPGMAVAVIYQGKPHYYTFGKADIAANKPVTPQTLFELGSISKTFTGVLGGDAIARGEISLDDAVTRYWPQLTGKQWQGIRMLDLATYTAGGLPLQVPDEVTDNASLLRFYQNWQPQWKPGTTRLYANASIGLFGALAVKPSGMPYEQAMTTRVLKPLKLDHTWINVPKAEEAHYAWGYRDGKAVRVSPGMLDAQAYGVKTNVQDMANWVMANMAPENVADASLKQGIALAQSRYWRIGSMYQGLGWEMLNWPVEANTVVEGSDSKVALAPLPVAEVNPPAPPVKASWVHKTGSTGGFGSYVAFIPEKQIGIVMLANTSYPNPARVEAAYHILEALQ
Chain of SHV-12 (P0AD64 22-286 L31Q/G234S/E235K): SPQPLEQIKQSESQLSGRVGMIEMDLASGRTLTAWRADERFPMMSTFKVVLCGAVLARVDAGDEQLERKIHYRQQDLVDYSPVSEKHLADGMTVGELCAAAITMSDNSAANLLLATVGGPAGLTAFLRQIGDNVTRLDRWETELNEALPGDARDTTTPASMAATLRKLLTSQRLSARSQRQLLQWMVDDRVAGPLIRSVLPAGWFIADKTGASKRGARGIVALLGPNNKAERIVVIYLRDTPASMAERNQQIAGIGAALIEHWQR

## CSCC(=O)N[C@H]1CC=C[C@@H]2CC(=O)OB1O2 [Compound 1, 2-(METHYLTHIO)-N-((2R,6S)-8-OXO-9,10-DIOXA-1-BORABICYCLO[4.3.1]DEC-4-EN-2-YL)ACETAMIDE]
KP1005 (CTX-M-14) [1]
  MPC@4 aztreonam potentiation: X (X = MPC@4 ≤ 5 μg/mL)
KP1009 (CTX-M-15) [2]
  MPC@4 aztreonam potentiation: X (X = MPC@4 ≤ 5 μg/mL)
ec308 (SHV-5) [3]
  MPC@4 aztreonam potentiation: X (X = MPC@4 ≤ 5 μg/mL)
KP1010 (SHV-12) [4]
  MPC@4 aztreonam potentiation: X (X = MPC@4 ≤ 5 μg/mL)
ec302 (TEM-10) [5]
  MPC@4 aztreonam potentiation: X (X = MPC@4 ≤ 5 μg/mL)
KP1004 (KPC-2) [6]
  MPC@4 aztreonam potentiation: X (X = MPC@4 ≤ 5 μg/mL)
ECL1002 [7]
  MPC@4 aztreonam potentiation: X (X = MPC@4 ≤ 5 μg/mL)
EC1010 (CMY-6) [8]
  MPC@4 aztreonam potentiation: X (X = MPC@4 ≤ 5 μg/mL)
KP1005 (CTX-M-14) [9]
  MPC@4 tigemonam potentiation: X (X = MPC@4 ≤ 5 μg/mL)
KP1009 (CTX-M-15) [10]
  MPC@4 tigemonam potentiation: X (key: X = MPC@4 ≤ 5 μg/mL; Y = 5 μg/mL < MPC@4 ≤ 20 μg/mL; Z = MPC@4 > 20 μg/mL)
ec308 (SHV-5) [11]
  MPC@4 tigemonam potentiation: X (X = MPC@4 ≤ 5 μg/mL)
KP1010 (SHV-12) [12]
  MPC@4 tigemonam potentiation: X (key: X = MPC@4 ≤ 5 μg/mL; Y = 5 μg/mL < MPC@4 ≤ 20 μg/mL; Z = MPC@4 > 20 μg/mL)
ec302 (TEM-10) [13]
  MPC@4 tigemonam potentiation: Y (Y = 5 μg/mL < MPC@4 ≤ 20 μg/mL)
ECL1002 [14]
  MPC@4 tigemonam potentiation: X (X = MPC@4 ≤ 5 μg/mL)
EC1010 (CMY-6) [15]
  MPC@4 tigemonam potentiation: X (X = MPC@4 ≤ 5 μg/mL)
CTX-M-14
  Ki: < 100 nM
SHV-12
  Ki: < 100 nM
CMY-2
  Ki: < 100 nM
KPC-2
  Ki: 100 to 1000 nM
OXA-48
  Ki: < 100 nM
P99
  Ki: < 100 nM
PAM1032/KPC-2
  PAM1032/KPC-2 Biapenem MPC64: 80
PAM1154/KPC-2
  PAM1154/KPC-2 Biapenem MPC64: 5
Oral pharmacokinetics; single oral dose 30 mg/kg
  bioavailability: 44 to 61%
Oral pharmacokinetics; single oral dose 100 mg/kg
  bioavailability: 63 to 74%
Oral pharmacokinetics; single oral dose 300 mg/kg
  bioavailability: 61 to 77%
KP1004 (KPC-2) [16]
  MPC@1 biapenem potentiation: X (X = MPC@1 ≤ 5 μg/mL)
KP1086 (OXA-48)
  MPC@1 biapenem potentiation: Z (Z = MPC@1 > 20 μg/mL)

## Cn1nnnc1SCC(=O)N[C@H]1CC=C[C@@H]2CC(=O)OB1O2 [Compound 4, 2-(1-METHYL-1H-TETRAZOL-5-YLTHIO)-N-((2R,6S)-8-OXO-9,10-DIOXA-1-BORABICYCLO[4.3.1]DEC-4-EN-2-YL)ACETAMIDE]
KP1005 (CTX-M-14) [1]
  MPC@4 aztreonam potentiation: X (X = MPC@4 ≤ 5 μg/mL)
KP1009 (CTX-M-15) [2]
  MPC@4 aztreonam potentiation: X (X = MPC@4 ≤ 5 μg/mL)
ec308 (SHV-5) [3]
  MPC@4 aztreonam potentiation: X (X = MPC@4 ≤ 5 μg/mL)
KP1010 (SHV-12) [4]
  MPC@4 aztreonam potentiation: X (X = MPC@4 ≤ 5 μg/mL)
ec302 (TEM-10) [5]
  MPC@4 aztreonam potentiation: X (X = MPC@4 ≤ 5 μg/mL)
KP1004 (KPC-2) [6]
  MPC@4 aztreonam potentiation: X (X = MPC@4 ≤ 5 μg/mL)
ECL1002 [7]
  MPC@4 aztreonam potentiation: X (X = MPC@4 ≤ 5 μg/mL)
EC1010 (CMY-6) [8]
  MPC@4 aztreonam potentiation: X (X = MPC@4 ≤ 5 μg/mL)
KP1005 (CTX-M-14) [9]
  MPC@4 tigemonam potentiation: Y (Y = 5 μg/mL < MPC@4 ≤ 20 μg/mL)
KP1009 (CTX-M-15) [10]
  MPC@4 tigemonam potentiation: X (key: X = MPC@4 ≤ 5 μg/mL; Y = 5 μg/mL < MPC@4 ≤ 20 μg/mL; Z = MPC@4 > 20 μg/mL)
ec308 (SHV-5) [11]
  MPC@4 tigemonam potentiation: X (X = MPC@4 ≤ 5 μg/mL)
KP1010 (SHV-12) [12]
  MPC@4 tigemonam potentiation: X (key: X = MPC@4 ≤ 5 μg/mL; Y = 5 μg/mL < MPC@4 ≤ 20 μg/mL; Z = MPC@4 > 20 μg/mL)
ec302 (TEM-10) [13]
  MPC@4 tigemonam potentiation: Y (Y = 5 μg/mL < MPC@4 ≤ 20 μg/mL)
ECL1002 [14]
  MPC@4 tigemonam potentiation: X (X = MPC@4 ≤ 5 μg/mL)
EC1010 (CMY-6) [15]
  MPC@4 tigemonam potentiation: X (X = MPC@4 ≤ 5 μg/mL)
CTX-M-14
  Ki: < 100 nM
SHV-12
  Ki: < 100 nM
CMY-2
  Ki: < 100 nM
KPC-2
  Ki: 100 to 1000 nM
OXA-48
  Ki: < 100 nM
P99
  Ki: < 100 nM
PAM1032/KPC-2
  PAM1032/KPC-2 Biapenem MPC64: >80
PAM1154/KPC-2
  PAM1154/KPC-2 Biapenem MPC64: 10
Oral pharmacokinetics; single oral dose 50 mg/kg
  bioavailability: 3.2 to 4.6%
KP1004 (KPC-2) [16]
  MPC@1 biapenem potentiation: X (X = MPC@1 ≤ 5 μg/mL)
KP1086 (OXA-48)
  MPC@1 biapenem potentiation: Z (Z = MPC@1 > 20 μg/mL)
